# Test results from patent publication US4540700A, “Treatment of diabetic complications with certain spiro-imidazolidine-diones” (Alcon Laboratories, Inc., priority 1984, dated 1985).
# Tested on: cataract formation in galactocemic rats
# Test: in vivo dose response by intubation (per oral) in galactocemic rats, cataract (vacuole) formation
# Parameters: species or system Charles River CD (Sprague-Dawley derived) male rats
# Procedure: B. In vivo dose response studies were conducted to test the in vivo activity of the following compounds by intubation (per oral) in galactocemic rats on a 30% galactose diet previously described:
# Stock suspensions of the test compounds and all dilutions of the compound were formulated with 0.03% by weight Tween 80.
# Healthy, Charles River CD (outbred albino, Sprague-Dawley derived) male rats, aged 20-30 days, without observable ocular defects and ranging in weight from 35-45 grams, were acclimated to experimental conditions (in quarantine) for two days prior to beginning the study.
# Rats were individually assigned to one of twenty-three groups according to a random number schedule. Two rats, belonging to the same drug-diet treatment group, were housed per cage. Treatment and control groups consisted of six (6) rats each with no replacement in the event of death, and were designated as follows:
# Lenses of all eyes were examined with a hand-held ophthalmoscope in the early stages of cataract development and a penlight for the stages, snowflake-like, snowflake, and nuclear cataract. Lens grading occurred every day for the first ten study days, and then every other day until study Day 14.
# The relative potency determination was made at 7 drug levels over half log dose intervals. The response (percent cataracts formed and/or the time to cataract formation) was plotted against mg/kg and/or moles/kg.
# The study was directed to the suppression and/or elimination of the initial stages of cataract development characterized by vacuoles or snowflake-likeopacities only. It was assumed therefore that suppression and/or elimination of vacuoles or lens opacification by the test drugs affects the transport, absorption and/or metabolism of galactose in such a manner as to prevent subsequent osmotic disturbances normally leading to tissue degeneration and advanced cataract. Advanced cataract defined as stages 2-4 of the Sipple classification was assumed to be of secondary importance to the etiology of cataract inhibition.
# In the event where cataract stage other than vacuole formed, such as snowflake-like opacities, this cataract was counted similarly as vacuole in percent cataract formation.
# This study yielded this expected effect in the control groups.
# All animals were fed Purina Laboratory Chow and water, ad libitum, for the two day acclimation period. All drugs were dosed orally by intubation using an animal feeding needle (Popper and Sons), 18 or 20 gauge, attached to a 1 or 3 ml syringe. Once the dosing time schedule was established, the schedule was followed throughout the study to compensate for any diurnal variation.
# The animals were kept on a twelve hour day/night cycle. The temperature and humidity were determined each day at the scheduled dosing time of 1:00 p.m.
# The animals were weighed every other day and adjustments to dosage amounts to compensate for weight gain were made each day prior to the dose time. All food was routinely withheld from all animal groups for four hours (9:00 a.m.) prior to the drug dose and restored two hours (3:00 p.m.) post-dose. Otherwise sufficient amounts of chow or diet mixture were maintained in the food hopper to allow the animals to eat ad libitum. There were two days of drug dosage with the animals remaining on Purina Laboratory Chow (Days 1 and 2). The 30% galactose diet mixture was introduced to the animals two hours post-dose on Day 3 which constituted Day 1 of the study.
# All eyes were examined with a hand-held ophthalmoscope and/or penlight at the times designated in the Experimental Design section.
# It has been found in previous studies that dilation of the eye with a mydriactic (i.e. Mydriacyl) is not necessary for accurate grading, due to the semi-transparent nature of the rat iris. In the early stages (i.e., grades -, ±, and +) the lens was observed by reflecting the ophthalmoscope beam off the retina back through the lens and iris. Using this technique, vacuoles appear as dark, almost opaque patches. […]
smiles,measurement,setting,value
"O=C1NC(=O)C2(N1)c1ccccc1-c1ccc(F)cc12 (racemic) [Compound L, dl-Spiro(2-fluorofluoren-9,4'-imidazolidine)-2',5'-dione]",Percent of Rat Eyes With at Least Vacuoles Formed,"0.126 mg/kg p.o., Day 0",0%
same,Percent of Rat Eyes With at Least Vacuoles Formed,"0.126 mg/kg p.o., Day 1",0%
same,Percent of Rat Eyes With at Least Vacuoles Formed,"0.126 mg/kg p.o., Day 2",0%
same,Percent of Rat Eyes With at Least Vacuoles Formed,"0.126 mg/kg p.o., Day 3",0%
same,Percent of Rat Eyes With at Least Vacuoles Formed,"0.126 mg/kg p.o., Day 4",0%
same,Percent of Rat Eyes With at Least Vacuoles Formed,"0.126 mg/kg p.o., Day 5",0%
same,Percent of Rat Eyes With at Least Vacuoles Formed,"0.126 mg/kg p.o., Day 6",33%
same,Percent of Rat Eyes With at Least Vacuoles Formed,"0.126 mg/kg p.o., Day 7",33%
same,Percent of Rat Eyes With at Least Vacuoles Formed,"0.126 mg/kg p.o., Day 8",50%
same,Percent of Rat Eyes With at Least Vacuoles Formed,"0.126 mg/kg p.o., Day 9",50%
same,Percent of Rat Eyes With at Least Vacuoles Formed,"0.126 mg/kg p.o., Day 10",50%
same,Percent of Rat Eyes With at Least Vacuoles Formed,"0.126 mg/kg p.o., Day 12",83%
same,Percent of Rat Eyes With at Least Vacuoles Formed,"0.126 mg/kg p.o., Day 14",83%
same,Percent of Rat Eyes With at Least Vacuoles Formed,"0.4 mg/kg p.o., Day 0",0%
same,Percent of Rat Eyes With at Least Vacuoles Formed,"0.4 mg/kg p.o., Day 1",0%
same,Percent of Rat Eyes With at Least Vacuoles Formed,"0.4 mg/kg p.o., Day 2",0%
same,Percent of Rat Eyes With at Least Vacuoles Formed,"0.4 mg/kg p.o., Day 3",0%
same,Percent of Rat Eyes With at Least Vacuoles Formed,"0.4 mg/kg p.o., Day 4",0%
same,Percent of Rat Eyes With at Least Vacuoles Formed,"0.4 mg/kg p.o., Day 5",0%
same,Percent of Rat Eyes With at Least Vacuoles Formed,"0.4 mg/kg p.o., Day 6",0%
same,Percent of Rat Eyes With at Least Vacuoles Formed,"0.4 mg/kg p.o., Day 7",8%
same,Percent of Rat Eyes With at Least Vacuoles Formed,"0.4 mg/kg p.o., Day 8",42%
same,Percent of Rat Eyes With at Least Vacuoles Formed,"0.4 mg/kg p.o., Day 9",42%
same,Percent of Rat Eyes With at Least Vacuoles Formed,"0.4 mg/kg p.o., Day 10",67%
same,Percent of Rat Eyes With at Least Vacuoles Formed,"0.4 mg/kg p.o., Day 12",83%
same,Percent of Rat Eyes With at Least Vacuoles Formed,"0.4 mg/kg p.o., Day 14",100%
same,Percent of Rat Eyes With at Least Vacuoles Formed,"1.26 mg/kg p.o., Day 0",0%
same,Percent of Rat Eyes With at Least Vacuoles Formed,"1.26 mg/kg p.o., Day 1",0%
same,Percent of Rat Eyes With at Least Vacuoles Formed,"1.26 mg/kg p.o., Day 2",0%
same,Percent of Rat Eyes With at Least Vacuoles Formed,"1.26 mg/kg p.o., Day 3",0%
same,Percent of Rat Eyes With at Least Vacuoles Formed,"1.26 mg/kg p.o., Day 4",0%
same,Percent of Rat Eyes With at Least Vacuoles Formed,"1.26 mg/kg p.o., Day 5",0%
same,Percent of Rat Eyes With at Least Vacuoles Formed,"1.26 mg/kg p.o., Day 6",0.0%
same,Percent of Rat Eyes With at Least Vacuoles Formed,"1.26 mg/kg p.o., Day 6, listed as 2-fluoro",0%
same,Percent of Rat Eyes With at Least Vacuoles Formed,"1.26 mg/kg p.o., Day 7",0%
same,Percent of Rat Eyes With at Least Vacuoles Formed,"1.26 mg/kg p.o., Day 8",0%
same,Percent of Rat Eyes With at Least Vacuoles Formed,"1.26 mg/kg p.o., Day 9",0%
same,Percent of Rat Eyes With at Least Vacuoles Formed,"1.26 mg/kg p.o., Day 10",0%
same,Percent of Rat Eyes With at Least Vacuoles Formed,"1.26 mg/kg p.o., Day 12",0%
same,Percent of Rat Eyes With at Least Vacuoles Formed,"1.26 mg/kg p.o., Day 14",0%
same,Percent of Rat Eyes With at Least Vacuoles Formed,"4.0 mg/kg p.o., Day 0",0%
same,Percent of Rat Eyes With at Least Vacuoles Formed,"4.0 mg/kg p.o., Day 1",0%
same,Percent of Rat Eyes With at Least Vacuoles Formed,"4.0 mg/kg p.o., Day 2",0%
same,Percent of Rat Eyes With at Least Vacuoles Formed,"4.0 mg/kg p.o., Day 3",0%
same,Percent of Rat Eyes With at Least Vacuoles Formed,"4.0 mg/kg p.o., Day 4",0%
same,Percent of Rat Eyes With at Least Vacuoles Formed,"4.0 mg/kg p.o., Day 5",0%
same,Percent of Rat Eyes With at Least Vacuoles Formed,"4.0 mg/kg p.o., Day 6",0.0%
same,Percent of Rat Eyes With at Least Vacuoles Formed,"4.0 mg/kg p.o., Day 6, listed as 2-fluoro",0%
same,Percent of Rat Eyes With at Least Vacuoles Formed,"4.0 mg/kg p.o., Day 7",0.0%
same,Percent of Rat Eyes With at Least Vacuoles Formed,"4.0 mg/kg p.o., Day 7, listed as 2-fluoro",0%
same,Percent of Rat Eyes With at Least Vacuoles Formed,"4.0 mg/kg p.o., Day 8",0.0%
same,Percent of Rat Eyes With at Least Vacuoles Formed,"4.0 mg/kg p.o., Day 8, listed as 2-fluoro",0%
